Reference: patent US4513009A, “Aminoacid derivatives and their therapeutic applications” (priority 1980, dated 1985)

Assays:
[1] = target: enkephalinase (enkephalin dipeptidylcarboxypeptidase); test: Determination of enkephalinasic (enkephalin dipeptidylcarboxypeptidasic) activity and effect of inhibitors, striatal membrane fraction, 3H-leucine-enkephalin; assay type: biochemical, rats or mice; conditions: 10 nM leucine-enkephalin 3H, 25° C., pH 7.4, 15 mn, read-out: 50% inhibitory concentration
Procedure: Determination of the "enkephalinasic" (enkephalin dipeptidylcarboxypeptidasic) activity and determination of the effect of inhibitors.
The enzyme preparation used is a membrane fraction from the striatum of rats or mice.
This fraction is obtained by homogenization at 4° C. in 20 volumes Tris-HCl buffer 0.05M (pH 7.4) followed by two successive centrifugations (1000 g×min. and 200,000 g×min.) at the end of which the sediment of the second centrifugation is retained. It is washed by re-suspension in 10 ml of the buffer followed by centrifugation (200,000 g×min) and the resulting sediment is in turn washed superficially to complete the removal of the soluble enzymes. The resulting membrane fraction is taken up into the buffer at 4° C., to obtain a suspension comprising about 1.5 mg proteins per ml.
An aliquot sample (50 μl) of the membrane suspension is then incubated in a final volume of 100 μl at 25° C. in the presence of 10 nM leucine-enkephalin ^3 H (39 Ci/mmole), previously purified by column chromatography over Porapak Q (100-120 mesh, Waters Assoc.) and […] puromycine, an aminopeptidase inhibitor. Incubation time is generally set at 15 mn. in order to determine the initial rate of the formation of tripeptide Tyr-Gly-Gly-^3 H characteristic of the enkephalin dipeptidylcarboxypeptidasic (enkephalinasic) activity.
Determination of the radioactivity of the tripeptide is effected by liquid scintillation spectrometry. […]

[2] = system: licking reflex of mice on a plate heated at 55° C.; test: Hot-plate test (55° C.): specific antalgic effect; assay type: in vivo; conditions: intravenous
Procedure: Licking reflex of mice on a plate heated at 55° C. according to the method of Jacob. and co-workers (Arch. Int. Pharmacodyn. 122, 287-300, 1959: 133, 296-300, 1961).
(b) Specific antalgic effect

[3] = system: phenylbenzoquinone-induced pain; test: Phenylbenzoquinone or writhing test; assay type: in vivo; conditions: 0.7 mg/kg i.v.; vs controls p<0.01
Text: 3--Phenylbenzoquinone or "writhing test" according to the method of SIEGMUND and co-workers (Proc. Soc. Expert. Biol. Med. 1957, 95, 729-731).

mice [4] = conditions: mouse, in vivo
mice [5] = test: Subacute toxicity, 3 weeks in mice, with reversibility test; conditions: 50 mg/kg 3 times/day, vs solvent controls

Compound: CC(=O)SCC(Cc1ccccc1)C(=O)NCC(=O)OCc1ccccc1 (stereo not drawn) [Compound 53, N-[3-Acetylthio-2-benzylpropanoyl]glycine benzyl ester]
- IC50 [1]: 380 nM
- ED50 ([2]; Mus musculus, hot plate 55° C.): 3 mg/kg
- antalgic effect in the hot (55° C.) plate test [2]: have an antalgic effect
- protection from phenylbenzoquinone-induced pain [3]: protect the treated animals from phenylbenzoquinone-induced pain, with a significant difference with respect to the controls, p<0.01
- tolerance, habit-forming and weaning phenomena (reversibility test) (mice [4]): no sign of tolerance, of habit-forming, and no weaning phenomena could be observed
- weight of the organs and their anatomic-pathologic examination (mice [5]): failed to show any difference with respect to the solvent controls
